Assay results reported in paper PMC9200803, “Design, synthesis, and biological evaluation of tetrahydroquinolinones and tetrahydroquinolines with anticancer activity” (Scientific Reports, 2022).

How the values were obtained:
Assay type in all cases: cell-based, human
HCT-116 cells [1] = experiment: Acridine orange staining of acidic vesicular organelles; conditions: HCT-116, p < 0.01
From the text: Then, to elucidate whether compound 20d can act as an autophagy modulator, we stained cells with acridine orange (AO), a lysotropic agent. AO is a weak base that can permeate the cell membrane in an uncharged state emitting green fluorescence. After protonation, AO forms aggregates in acidic vesicular organelles (AVOs), emitting red fluorescence. […] One of the hallmarks of autophagy is the conjugation of LC3-I with phosphatidylethanolamine, followed by its conversion to autophagosome-associated form LC3-II[39]. Taking this into account, we evaluated the expression of LC3I/II in colon cancer cells after exposure to 20d. Furthermore, we studied the expression of LAMP-1, a well-known lysosomal marker. […] This observation was also confirmed by increased punctate cytosolic LC3 fluorescence intensity when HCT-116 cells were assessed by confocal microscopy (Fig. 8e,g). […] It has been shown that multiple signaling pathways are involved in the modulation of autophagy, including the PI3K/AKT/mTOR pathway, which is especially involved in the stage of autophagosome elongation[41],[42]. In this study, we investigated whether 20d-induced autophagy in HCT-116 cells is related to PI3K/AKT/mTOR signaling. […] This proves that 20d induced autophagy cell death in HCT-116 cells by interfering with the PI3K/AKT/mTOR signaling pathway.

[2] = test system: hMLH1-deficient RKO cells; experiment: ROS level, H2DCFDA probe, MMR-deficient RKO; conditions: 1 h of exposure, vs control
Method: Then, we confirmed whether the induction of cellular stress by 20d is related to MMR deficiency by exposing MMR-deficient and MMR-proficient cells to the compound for different times and measuring the ROS levels. Our results indicated a greater increase in the level of ROS after 1 h of exposure in 20d-treated MMR-deficient cells than in MMR-proficient cells (54.71 ± 2.70% and 22.27 ± 1.7%, respectively), in comparison to control (Fig. 7).
The […] ROS levels were determined using an H2DCFDA (2′,7′-dichlorodihydrofluorescein diacetate) probe (Thermo Fisher) following the manufacturer’s protocol. […] DMSO (1%, Merck) and 250 μM H2O2 were used as a negative and positive control, respectively. NAC (500 μM, Sigma-Aldrich) was used as an ROS scavenger to confirm the ROS activity. After treatment with 20d and 19b, cells were incubated with H2DCFDA at 37 °C for 30 min. Subsequently, cells were harvested by trypsinization, rinsed with PBS, and stained with 7-AAD (Thermo Fisher). Finally, the stained cells were analyzed by flow cytometry using a Guava easyCyte 8 cell sorter (Merck Millipore) and FlowJo v10 software.

HCT-116 cells [3] = experiment: Colony formation (clonogenic) assay; conditions: HCT-116, 24 h pretreatment, 9 days culture
Method: A total of 500 HCT-116 cells/well was seeded into six-well plates. After attachment, cells were pretreated with DMSO (1%) or various concentrations of 20d and 19b for 24 h. Following incubation, the medium was changed, and cells were cultured for 9 days. After culturing, cells were washed with phosphate-buffered saline (PBS), fixed with 100% methanol for 30 min, and then stained with 0.5% crystal violet for 15 min. The plates were air-dried, and visible colonies were counted using ImageJ software. The percentage viability of cells was calculated in comparison to the control.

HCT-116 cells [4] = experiment: MTT cell viability assay, HCT-116; conditions: for IC50: MTT, 72 h, IC50 ± SD
Method: To evaluate the effects of the newly synthesized tetrahydroquinolin-2(1H)-one derivatives on cell viability, we treated human colon cancer cells HCT-116, human breast cancer cells MCF-7, and human non-small cell lung cancer cells A-549 with different concentrations of the compounds for 72 h. After incubation, the MTT (3-(4,5-dimethylthiazol-2-yl)-2,5-diphenyltetrazolium bromide) assay was performed and the cytotoxic potency of compounds (expressed in IC50) on the cells was determined in comparison to control cells treated with 1% of dimethyl sulfoxide (DMSO) (Table 1). […] We also compared the activity of 20d and 19b to the reference control drug Cisplatin, which is widely used in chemotherapy.
A-549 (CCL-185) and MCF-7 ([…]) cells were cultured in RPMI-1640 medium, while HCT-116 (CVCL-427), (hMLH1)-deficient (MMR^–) and hMLH1-proficient (MMR^+) RKO cells were cultured in McCoy’s 5A medium. The culture media were supplemented with 10% fetal bovine serum, 2 mM L-glutamine, and antibiotics (penicillin 62.6 µg/ml and streptomycin 40 µg/ml). Cultivation of cell lines was carried out at 37 °C under a humidified atmosphere containing 5% CO2, and the cultures were routinely screened for Mycoplasma contamination. A-549, MCF-7, and HCT-116 cells were obtained from American Type Culture Collection (ATCC), while RKO colon carcinoma cells were a kind gift of Dr Timothy Kinsella (Brown University, USA).
The viability of cells was determined in response to the newly synthesized compounds using the MTT (Sigma-Aldrich) assay. Briefly, cells were seeded into 96-well plates and allowed to attach overnight. Then, cells were exposed to various concentrations of compounds for 24, 48 or 72 h. Negative controls were treated with the same amount of DMSO solvent (1%). After treatment, the MTT solution (0.4 mg/ml) was added to each well and allowed to react with cells for 2–3 h at 37 °C. Next, the medium was removed, the formazan product formed was dissolved in 100 μl of DMSO, and the absorbance was determined at 540 nm using an ASYS UVM340 microplate reader (Biochrom Ltd.). The IC50 value, which represents the concentration of the compound required to inhibit cell growth by 50% compared to vehicle, was calculated using GraphPad Prism 8 software based on the curves plotting survival against dose averaged from at least three independent experiments.

HCT-116 cells [5] = experiment: Annexin V-FITC / PI staining, flow cytometry; conditions: HCT-116, Annexin V/PI
From the text: Due to its ability to mediate the redox signaling pathways, ROS interplays between two major types of programmed cell death: autophagy and apoptosis. One of the early events in the process of apoptosis is the translocation of phosphatidylserine to the exposed membrane surface, which can be detected using Annexin V, a protein with a high affinity to this phospholipid. In order to study the impact of 20d on apoptotic cell death, flow cytometry analyses with double-staining using Annexin V-fluorescein isothiocyanate (FITC) conjugate and propidium ioidide (PI) was performed.
To determine the proapoptotic activity of compounds, cells were seeded into Petri dishes. […] DMSO (1%, Merck) and Etoposide (10 μM, Sigma-Aldrich) were used as references. Cells were harvested and stained with FITC-Annexin V, (Thermo Fisher, V13242) according to the manufacturer’s instructions. Finally, cells were stained with propidium iodide (Thermo Fisher) and assessed using a Guava easyCyte 8 cell sorter (Merck Millipore). The results were analyzed using FlowJo v10 software.

SMILES: O=C(Nc1cccc(F)c1)OC1CCCc2c(-c3ccccc3)cc(=O)[nH]c21 (stereo not shown) [Compound 20d, (2-oxo-4-phenyl-5,6,7,8-tetrahydroquinolin-8-yl) N-(3-fluorophenyl)carbamate]
- increase in red fluorescence (AVOs) in comparison to vehicle (HCT-116 cells [1]): 1.9 fold
- increase in the level of ROS [2]: 54.71 ± 2.70%
- formation of colonies (HCT-116 cells [3]): effectively inhibited the formation of colonies in a concentration-dependent manner
- cytotoxic effect after 24 h and 48 h exposure (HCT-116 cells [4]; HCT-116, 10 and 20 µM): slight cytotoxic effect
- IC50 (HCT-116 cells [4]; Homo sapiens, HCT-116, 72 h): ~13 µM
- IC50 (HCT-116 cells [4]): 12 ± 0.57 µM
- early and late apoptotic and necrotic fractions (HCT-116 cells [5]): on the same level as in DMSO-treated group
